Reference: EP0212404A1, “7-oxo-4-thia-1-azabicyclo [3.2.0] hept-2-ene derivatives” (HOECHST AKTIENGESELLSCHAFT, priority 1985, dated 1987)
≈ marks a conversion by molar mass, not a printed value. Read-outs that look alike come from different tables or passages of the source.

Columns and labels:
Test in all cases: agar dilution test (MIC)
Type in all cases: cell-based
E.coli 055 = settings: Escherichia coli, Mueller Hinton agar, 16 to 18 hours at 37°C, read-out: Minimum Inhibitory Concentration (MIC)
Protocol: (§1) The antimicrobial activity was determined by measuring the Minimum Inhibitory Concentration (MIC). The MIC of the compounds was determined by a standard test, the "agar dilution test" according to Lorian (Antibiotics in Laboratory Medicine, Williams and Wilkins, Baltimore/London 1980) as follows:
(§2) A two-fold decreasing concentration series of each compound was prepared in Petri dishes containing 15 ml of Mueller Hinton agar (Difco). One Petri dish containing only the Mueller Hinton agar served as control for bacterial growth. Each Petri dish was inoculated with a multi-point inoculator (Denley), which transferred 0.6µl of a 1:100 diluted 18 hours culture of the appropriate test bacterium. After 16 to 18 hours of incubation at 37°C the Petri dishes were examined for growth of bacteria. The lowest concentration of the compound which causes complete inhibition of growth is taken as the MIC except that the growth of a single colony or a haze is not taken as evidence of qrowth.

Staph.aureus SG511 = settings: Staphylococcus aureus, Mueller Hinton agar, 16 to 18 hours at 37°C, read-out: Minimum Inhibitory Concentration (MIC)
Protocol: as §1, §2

Bac.subt. ATCC6633 = settings: Mueller Hinton agar, 16 to 18 hours at 37°C, read-out: Minimum Inhibitory Concentration (MIC)
Protocol: as §1, §2

E.coli DC0 = settings: Escherichia coli, Mueller Hinton agar, 16 to 18 hours at 37°C, read-out: Minimum Inhibitory Concentration (MIC)
Protocol: as §1, §2

E.coli TEM = settings: Escherichia coli, read-out: Minimum Inhibitory Concentration (MIC)
Protocol: as §1, §2

Str.pyogenes 77A = settings: Streptococcus pyogenes, Mueller Hinton agar, 16 to 18 hours at 37°C, read-out: Minimum Inhibitory Concentration (MIC)
Protocol: as §1, §2

E.coli KN126 = settings: Escherichia coli, Mueller Hinton agar, 16 to 18 hours at 37°C, read-out: Minimum Inhibitory Concentration (MIC)
Protocol: as §1, §2

Ent.cloacae P99 = settings: Enterobacter cloacae, Mueller Hinton agar, 16 to 18 hours at 37°C, read-out: Minimum Inhibitory Concentration (MIC)
Protocol: as §1, §2

Ent.cloacae 1321E = settings: Enterobacter cloacae, read-out: Minimum Inhibitory Concentration (MIC)
Protocol: as §1, §2

Str.faecium D = settings: Enterococcus faecium, read-out: Minimum Inhibitory Concentration (MIC)
Protocol: as §1, §2

Str.pyogenes 308A = settings: Streptococcus pyogenes, Mueller Hinton agar, 16 to 18 hours at 37°C, read-out: Minimum Inhibitory Concentration (MIC)
Protocol: as §1, §2

Kl.aerog. 1522E = settings: read-out: Minimum Inhibitory Concentration (MIC)
Protocol: as §1, §2

Staph.aureus 285 = settings: Staphylococcus aureus, Mueller Hinton agar, 16 to 18 hours at 37°C, read-out: Minimum Inhibitory Concentration (MIC)
Protocol: as §1, §2

Staph.aureus 503 = settings: Staphylococcus aureus, Mueller Hinton agar, 16 to 18 hours at 37°C, read-out: Minimum Inhibitory Concentration (MIC)
Protocol: as §1, §2

E.coli 1507E = settings: Escherichia coli, read-out: Minimum Inhibitory Concentration (MIC)
Protocol: as §1, §2

E.coli DC2 = settings: Escherichia coli, Mueller Hinton agar, 16 to 18 hours at 37°C, read-out: Minimum Inhibitory Concentration (MIC)
Protocol: as §1, §2

Salm.typh. MZII = settings: Mueller Hinton agar, 16 to 18 hours at 37°C, read-out: Minimum Inhibitory Concentration (MIC)
Protocol: as §1, §2

Kl.aerog. 1082E = settings: Mueller Hinton agar, 16 to 18 hours at 37°C, read-out: Minimum Inhibitory Concentration (MIC)
Protocol: as §1, §2

[1] = Str.faecium D, Mueller Hinton agar, 16 to 18 hours at 37°C
[2] = Kl.aerog. 1522E, Mueller Hinton agar, 16 to 18 hours at 37°C
[3] = E.coli 1507E, Mueller Hinton agar, 16 to 18 hours at 37°C
[4] = Ent.cloacae 1321E, Mueller Hinton agar, 16 to 18 hours at 37°C

Row | SMILES | MIC (E.coli 055) [µg/mL] | MIC (Staph.aureus SG511) [µg/mL] | MIC (Bac.subt. ATCC6633) [µg/mL] | MIC (E.coli DC0) [µg/mL] | MIC (E.coli TEM) [µg/mL] | MIC (Str.pyogenes 77A) [µg/mL] | MIC (E.coli KN126) [µg/mL] | MIC (Ent.cloacae P99) [µg/mL] | MIC (Ent.cloacae 1321E; 1321E) [µg/mL] | MIC (Str.faecium D; [1]) [µg/mL] | MIC (Str.pyogenes 308A) [µg/mL] | MIC (Kl.aerog. 1522E) [µg/mL] | MIC (Staph.aureus 285) [µg/mL] | MIC (Staph.aureus 503) [µg/mL] | MIC (E.coli 1507E; 1507E) [µg/mL] | MIC (E.coli DC2) [µg/mL] | MIC (Salm.typh. MZII) [µg/mL] | MIC (Kl.aerog. 1082E) [µg/mL] | MIC (Kl.aerog. 1522E; [2]) [µg/mL] | MIC (E.coli 1507E; [3]) [µg/mL] | further results
1 | COc1ccc(C2=C(C(=O)O)N3C(=O)[C@H]([C@@H](C)O)[C@H]3S2)cc1 [Example 4-OCH3] | 3.13 (≈ 9.74 µM) | 0.1 (≈ 0.311 µM) | 0.1 (≈ 0.311 µM) | 25 (≈ 77.8 µM) | 12.5 (≈ 38.9 µM) | < 0.05 | 12.5 (≈ 38.9 µM) | 100 (≈ 311 µM) | 12.5 (≈ 38.9 µM) | 3.13 (≈ 9.74 µM) | < 0.05 | 12.5 (≈ 38.9 µM) | 0.19 (≈ 0.591 µM) | 0.19 (≈ 0.591 µM) | 12.5 (≈ 38.9 µM) | 0.78 (≈ 2.43 µM) | 6.25 (≈ 19.4 µM) | 0.78 (≈ 2.43 µM) |  |  | 
2 | C[C@@H](O)[C@H]1C(=O)N2C(C(=O)O)=C(c3ccccc3)S[C@H]12 [H] | 0.78 (≈ 2.68 µM) | 0.1 (≈ 0.343 µM) | 0.1 (≈ 0.343 µM) | 3.12 (≈ 10.7 µM) | 1.56 (≈ 5.35 µM) | < 0.05 | 3.12 (≈ 10.7 µM) | 12.5 (≈ 42.9 µM) | 1.56 (≈ 5.35 µM) |  | < 0.05 | 1.56 (≈ 5.35 µM) | 0.19 (≈ 0.652 µM) | 0.1 (≈ 0.343 µM) | 1.56 (≈ 5.35 µM) | 0.39 (≈ 1.34 µM) |  | 0.78 (≈ 2.68 µM) |  |  | MIC (Str.faecium D): 1.56 µg/mL (≈ 5.35 µM)
3 | CSc1ccc(C2=C(C(=O)O)N3C(=O)[C@H]([C@@H](C)O)[C@H]3S2)cc1 [Example 4-SCH3] | 6.25 (≈ 18.5 µM) |  | 0.1 (≈ 0.296 µM) | 50 (≈ 148 µM) | 25 (≈ 74.1 µM) | < 0.05 | 12.5 (≈ 37 µM) | 50 (≈ 148 µM) | 12.5 (≈ 37 µM) | 3.13 (≈ 9.28 µM) | < 0.05 |  | 0.19 (≈ 0.563 µM) | 0.19 (≈ 0.563 µM) |  | 0.78 (≈ 2.31 µM) | 12.5 (≈ 37 µM) | 0.78 (≈ 2.31 µM) | 25 (≈ 74.1 µM) | 25 (≈ 74.1 µM) | 
4 | C[C@@H](O)[C@H]1C(=O)N2C(C(=O)O)=C(c3cccc(NC=O)c3)S[C@H]12 [Example 3-NHCHO, 3-(3-formylaminophenyl)-6-(1-hydroxyethyl)-7-oxo-4-thia-l-azabicyclo[3.2.0]hept-2-ene 2-carboxylic acid] | 0.39 (≈ 1.17 µM) | 0.1 (≈ 0.299 µM) | 0.1 (≈ 0.299 µM) | 1.56 (≈ 4.67 µM) | 0.78 (≈ 2.33 µM) | < 0.025 | 0.39 (≈ 1.17 µM) | 12.5 (≈ 37.4 µM) |  | 1.56 (≈ 4.67 µM) | < 0.025 |  | 0.19 (≈ 0.568 µM) | 0.19 (≈ 0.568 µM) |  | 0.39 (≈ 1.17 µM) |  | 0.39 (≈ 1.17 µM) | 0.39 (≈ 1.17 µM) | 0.78 (≈ 2.33 µM) | MIC (Ent.cloacae 1321E; [4]): 0.39 µg/mL (≈ 1.17 µM)
5 | C[C@@H](O)[C@H]1C(=O)N2C(C(=O)O)=C(c3cccc(C(N)=O)c3)S[C@H]12 [Example 3-CONH2, 5R,3-(3-aminocarbonylphenyl)-6S-(1R-hydroxyethyl)-7-oxo-4-thia-l-azabicyclo[3.2.0]hept-2-ene-2-carboxylate] | 0.1 (≈ 0.299 µM) | 0.05 (≈ 0.15 µM) | 0.05 (≈ 0.15 µM) | 0.39 (≈ 1.17 µM) | 0.19 (≈ 0.568 µM) | 0.013 (≈ 0.0389 µM) | 0.1 (≈ 0.299 µM) | 1.56 (≈ 4.67 µM) |  | 1.56 (≈ 4.67 µM) | 0.006 (≈ 0.0179 µM) |  | 0.1 (≈ 0.299 µM) | 0.1 (≈ 0.299 µM) |  | 0.1 (≈ 0.299 µM) |  | 0.1 (≈ 0.299 µM) | 0.19 (≈ 0.568 µM) | 0.19 (≈ 0.568 µM) | MIC (Ent.cloacae 1321E; [4]): 0.1 µg/mL (≈ 0.299 µM)
